According to publication PMC12078602 (Nature Communications, 2025):

Columns and labels:
Glk (BT2493) = biological target: T1, Glk (BT2493) (Bacteroides thetaiotaomicron, UniProt Q8A4V4); assay: glucokinase activity in vitro, coupled NADH oxidation, […] nm; assay type: biochemical; conditions: 50 mM Tris pH 7.4, 3 mM MgCl2, 10 mM NH4Cl; data only in supplement
T1 sequence (Q8A4V4 1-326): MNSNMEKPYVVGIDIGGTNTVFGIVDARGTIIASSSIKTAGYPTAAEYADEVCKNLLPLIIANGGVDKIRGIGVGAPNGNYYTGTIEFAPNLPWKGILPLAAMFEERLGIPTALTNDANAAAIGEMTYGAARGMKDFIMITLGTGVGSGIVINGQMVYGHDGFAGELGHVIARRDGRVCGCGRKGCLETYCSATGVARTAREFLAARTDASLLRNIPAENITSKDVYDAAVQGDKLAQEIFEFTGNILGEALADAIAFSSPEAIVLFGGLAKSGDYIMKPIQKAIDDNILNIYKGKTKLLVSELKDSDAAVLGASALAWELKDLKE

[1] = system: Cur (Bacteroides thetaiotaomicron VPI-5482); assay: EMSA

Row | Compound | glucokinase activity in vitro, coupled NADH oxidation, 340 nm (Glk (BT2493)) | Kd [1]
1 | OC[C@H]1OC(O)[C@H](O)[C@@H](O)[C@@H]1O (some centres unmarked) [glucose] | We determined that Glk exhibits glucokinase activity in vitro (Supplementary Fig. 4a) | 
2 | fusA2 promoter probe (wild-type) |  | 4.97 pmol
